Read-outs that look alike come from different tables or passages of the source.
What was measured:
[1] = Table 1, anti-ZIKV assay
ZIKV GFP RVPs [2] = tested on: ZIKV GFP RVPs
[3] = 1H NMR titration with octyloxy pyranoside β-Man; assay type: binding; conditions: NMR titrations in CD2Cl2 at 298 K, 1:1 binding
[4] = NMR dilution experiments for dimerization; assay type: physicochemical; conditions: dilution experiments in CD2Cl2
ZIKV GFP RVPs [5] = assay: microbe, parasite or virus in culture; conditions: Zika virus, Vero, Vero cells
[6] = 1H NMR titration with octyloxy pyranoside α-Glc; assay type: binding; conditions: CD2Cl2, 298 K, 1:1 binding
[7] = 1H NMR titration with octyloxy pyranoside α-Man; assay type: binding; conditions: NMR titrations in CD2Cl2 at 298 K, 1:1 binding
[8] = Cellular toxicity, CellTiter-Glo, Vero cells; conditions: African green monkey
N154Q mutant ZIKV RVPs = assay type: cell-based, Zika virus; conditions: Vero cells

SMILES	solubility (words printed in the IC50 column) [1]	anti-ZIKV activity in words (ZIKV GFP RVPs [2])	Ka (M^−1) with β-Man [3]	dimerization in words [4]	IC50 (ZIKV GFP RVPs [5]; Table 3, ZIKV RVPs, average of at least two independent measurements)	Ka with α-Glc [6]	Ka (M^−1) with α-Man [7]	CC50 at 72 h [8]	IC50 relative to regioisomer (ZIKV GFP RVPs [2]; SCR023 vs SCR022, SCR017 vs SCR001)	therapeutic index (TC50/IC50) (ZIKV GFP RVPs [2]; Table 3, Vero cells)	IC50 (ZIKV GFP RVPs [2]; Table 3, Vero cells, ZIKV RVPs, average of at least two independent measurements)	anti-ZIKV activity in words (ZIKV GFP RVPs [2]; Vero cells, ZIKV RVPs)	inhibition of N154Q mutant RVPs in words (N154Q mutant ZIKV RVPs)	IC50 (ZIKV GFP RVPs [5]; Table 1, compounds 30 min before ZIKV RVPs, GFP+ cells 72 h postinfection)
O=C(NCc1cc(CNC(=O)c2ccco2)cc(-c2cc(CNC(=O)c3ccco3)cc(CNC(=O)c3ccco3)c2)c1)c1ccco1 [SCR007, N,N′,N′″-([1,1′-biphenyl]-3,3′,5,5′-tetrayltetrakis(methylene))tetrakis(furan-2-carboxamide)]	not soluble	not effective												
Oc1cccc(CNCc2cc(CNCc3cccc(O)c3)cc(-c3cc(CNCc4cccc(O)c4)cc(CNCc4cccc(O)c4)c3)c2)c1 [SCR023, 3,3′,3″,3′″-((([1,1′-biphenyl]-3,3′,5,5′-tetrayltetrakis(methylene))tetrakis(azanediyl))tetrakis(methylene))tetraphenol]			250 M⁻¹	Dimerization was observed	< 20 µM	310 M⁻¹	150 M⁻¹	207 ± 79 µM	at least four times higher	20	10.6 ± 5.9 µM	weaker inhibition		
Cc1ccc(C(=O)Nc2ccc(S(=O)(=O)O)c3cc(S(=O)(=O)O)cc(S(=O)(=O)O)c23)cc1NC(=O)c1cccc(NC(=O)Nc2cccc(C(=O)Nc3cc(C(=O)Nc4ccc(S(=O)(=O)O)c5cc(S(=O)(=O)O)cc(S(=O)(=O)O)c45)ccc3C)c2)c1 [Suramin, reference compound]								> 200 µM				dose dependent inhibition of ZIKV infection	inhibited	44 ± 4.19 µM

From patent publication US12023323B2, “Carbohydrate-binding small molecules with antiviral activity” (priority 2018, dated 2024)
